Assay results from patent publication US10894786B2, “Substituted pyrazole derivatives as selective CDK12/13 inhibitors” (Aurigene Discovery Technologies Limited, priority 2018, dated 2021).
Read-outs that look alike come from different tables or passages of the source.

Tests used:
[1] = target: CDK13 (Homo sapiens (Human), UniProt Q14004); assay: Biochemical assay for CDK13, LanthaScreen Eu Kinase Binding Assay; details: for IC50: kinase tracer 236 100 nM; for Ratio CDK7/CDK13: ratio of IC50
Source text: Binding of an inhibitor to the kinase competes for binding with the tracer, resulting in a loss of FRET signal.

[2] = target: CDK7 (Homo sapiens (Human), UniProt P50613); assay: Biochemical assay for CDK7, LANCE TR-FRET; details: read-out: CDK 7 IC50
Method: The inhibitory activity of the test compounds was assessed by the LANCE TR-FRET assay, which detects the ATP-dependent phosphorylation of an ULight-myelin basic protein (MBP) substrate peptide (100 nM) by CDK7 (10 nM). Briefly, the enzyme reaction was run in reaction buffer (20 mM HEPES (pH 7.5), 10 mM MgCl2, 0.01% Triton x, 100 μM Sodium Orthovanadate, 1 mM DTT). The assay was performed in 384-well plate. The end concentration of the ATP substrate was 1 mM/100 μM, and that of the ULight-MBP substrate peptide was 100 nM, and of CDK7 was 10 nM. Pre-incubation of the compound and enzyme was performed for 60 min at room temperature. After 60 min incubation at room temperature, the reaction was terminated by the addition of 40 mM EDTA and 1 nM Eu-labeled anti-phospho-MBP-binding protein antibody in the buffer. […] The readout was calculated as (acceptor counts/donor counts)×1000. The IC50 values were derived by fitting a sigmoidal dose-response curve to a plot of assay readout over inhibitor concentration.

[3] = target: T1, CDK12 (Homo sapiens (Human), UniProt Q9NYV4); assay: Biochemical assay for CDK12 (Kd determination), kinase-tagged phage/qPCR competition binding
Method: Kinase-tagged T7 phage strains were grown in parallel in 24-well blocks in an E. coli host derived from the BL21 strain. E. coli were grown to log-phase and infected with T7 phage from a frozen stock (multiplicity of infection=0.4) and incubated with shaking at 32° C. until lysis (90-150 minutes). The lysates were centrifuged (6,000×g) and filtered (0.2 μm) to remove cell debris. The remaining kinases were produced in HEK-293 cells and subsequently tagged with DNA for qPCR detection. […] The liganded beads were blocked with excess biotin and washed with blocking buffer (SeaBlock (Pierce), 1% BSA, 0.05% Tween 20, 1 mM DTT) to remove unbound ligand and to reduce non-specific phage binding. […] Test compounds were prepared as 40× stocks in 100% DMSO and directly diluted into the assay. All reactions were performed in polypropylene 384-well plates in a final volume of 0.02 ml. […] The kinase concentration in the eluates was measured by qPCR.
Target sequence in this assay (Q9NYV4 whole entry, species assumed): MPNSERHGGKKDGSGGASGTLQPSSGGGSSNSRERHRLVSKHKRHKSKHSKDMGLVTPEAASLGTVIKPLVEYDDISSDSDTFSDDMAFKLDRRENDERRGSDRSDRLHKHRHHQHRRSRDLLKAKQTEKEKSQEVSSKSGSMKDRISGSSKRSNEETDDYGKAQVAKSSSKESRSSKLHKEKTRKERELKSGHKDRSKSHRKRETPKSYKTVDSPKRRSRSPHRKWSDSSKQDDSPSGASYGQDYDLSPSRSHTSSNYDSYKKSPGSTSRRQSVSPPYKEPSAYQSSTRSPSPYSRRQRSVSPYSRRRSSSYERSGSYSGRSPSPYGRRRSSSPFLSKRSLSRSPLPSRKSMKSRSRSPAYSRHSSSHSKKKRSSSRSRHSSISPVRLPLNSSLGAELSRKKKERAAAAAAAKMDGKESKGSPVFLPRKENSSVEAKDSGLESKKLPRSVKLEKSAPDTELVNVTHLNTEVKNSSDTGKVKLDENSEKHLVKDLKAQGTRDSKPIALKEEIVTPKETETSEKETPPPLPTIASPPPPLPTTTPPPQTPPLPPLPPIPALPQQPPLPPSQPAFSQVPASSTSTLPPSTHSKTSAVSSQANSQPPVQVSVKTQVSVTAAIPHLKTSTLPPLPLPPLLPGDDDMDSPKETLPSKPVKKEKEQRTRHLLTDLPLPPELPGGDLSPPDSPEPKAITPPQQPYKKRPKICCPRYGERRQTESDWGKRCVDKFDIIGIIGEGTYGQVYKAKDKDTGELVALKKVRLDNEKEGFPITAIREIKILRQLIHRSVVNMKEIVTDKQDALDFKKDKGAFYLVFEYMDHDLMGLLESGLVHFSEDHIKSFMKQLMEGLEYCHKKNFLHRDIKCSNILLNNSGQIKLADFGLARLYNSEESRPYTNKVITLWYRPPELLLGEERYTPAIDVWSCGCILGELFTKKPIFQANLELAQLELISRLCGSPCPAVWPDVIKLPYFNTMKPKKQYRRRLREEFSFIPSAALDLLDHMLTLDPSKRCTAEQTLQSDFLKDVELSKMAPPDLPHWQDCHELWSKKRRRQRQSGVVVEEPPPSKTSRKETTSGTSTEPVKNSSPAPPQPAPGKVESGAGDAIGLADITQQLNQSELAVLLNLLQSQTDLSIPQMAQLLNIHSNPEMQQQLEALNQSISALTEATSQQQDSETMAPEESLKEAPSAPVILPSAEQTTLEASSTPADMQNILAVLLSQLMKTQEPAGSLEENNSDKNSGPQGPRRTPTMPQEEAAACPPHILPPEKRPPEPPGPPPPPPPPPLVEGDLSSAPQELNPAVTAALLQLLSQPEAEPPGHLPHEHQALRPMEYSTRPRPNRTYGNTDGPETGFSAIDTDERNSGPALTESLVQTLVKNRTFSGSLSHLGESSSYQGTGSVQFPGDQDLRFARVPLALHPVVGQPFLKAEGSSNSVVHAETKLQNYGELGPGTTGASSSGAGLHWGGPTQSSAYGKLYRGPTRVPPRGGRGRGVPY

[4] = target: T1, CDK12; assay: Biochemical assay for CDK12 (IC50 determination), LANCE TR-FRET; details: for IC50: ATP 100 μM, 60 min pre-incubation
Method: The inhibitory activity of the test compounds was assessed by the LANCE TR-FRET assay, which detects the ATP-dependent phosphorylation of an ULight-4E-BP1 (Thr37/Thr46) substrate peptide (100 nM) by CDK12 (30 nM). Briefly, the enzyme reaction was run in reaction buffer (25 mM HEPES (pH 7.5), 10 mM MgCl2, 0.01% BSA, 0.01% Triton x, 1 mM DTT). The assay was performed in 384-well plate format. The end concentration of the ATP substrate was 100 μM, and that of the ULight-4E-BP1 (Thr37/Thr46) substrate peptide was 100 nM, and of CDK12 was 30 nM. Pre-incubation of the compound and enzyme was performed for 60 min at room temperature. After 60 min incubation at room temperature, the reaction was terminated by the addition of 40 mM EDTA and 0.5 nM Eu-labeled anti-phospho-eIF4E-binding protein (Thr37/46) antibody in LANCE detection buffer. […] The readout was calculated as (acceptor counts/donor counts)×1000. The IC50 values were derived by fitting a sigmoidal dose-response curve to a plot of assay readout over inhibitor concentration.
Target sequence in this assay (Q9NYV4 whole entry, looked up, species assumed): as the sequence (Q9NYV4 whole entry, species assumed) above
Target sequence in this assay (O75909 whole entry partner, looked up, species assumed): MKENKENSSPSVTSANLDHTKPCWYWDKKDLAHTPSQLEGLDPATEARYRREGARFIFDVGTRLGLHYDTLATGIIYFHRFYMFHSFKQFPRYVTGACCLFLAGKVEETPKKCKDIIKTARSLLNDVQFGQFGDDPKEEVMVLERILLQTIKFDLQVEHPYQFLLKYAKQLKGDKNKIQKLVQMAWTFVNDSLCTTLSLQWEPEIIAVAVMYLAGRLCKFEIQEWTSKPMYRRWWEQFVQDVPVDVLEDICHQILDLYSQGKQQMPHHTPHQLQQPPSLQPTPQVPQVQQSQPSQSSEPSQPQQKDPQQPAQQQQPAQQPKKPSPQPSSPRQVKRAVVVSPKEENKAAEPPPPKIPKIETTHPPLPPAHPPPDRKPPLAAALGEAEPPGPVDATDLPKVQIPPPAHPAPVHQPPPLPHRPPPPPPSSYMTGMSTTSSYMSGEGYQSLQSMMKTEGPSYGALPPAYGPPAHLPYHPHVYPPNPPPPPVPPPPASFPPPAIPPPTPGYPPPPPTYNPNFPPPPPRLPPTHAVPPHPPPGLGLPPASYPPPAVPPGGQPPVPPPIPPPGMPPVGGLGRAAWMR

[5] = target: T1, CDK12; assay: CDK12 plate based target engagement assay in Jurkat cells; type: cell-based
Method: Jurkat cells were treated with varying concentrations of the compound for 6 hours. The DMSO concentration was maintained at 0.1%. Cells were harvested and lysed. 200 μg of the lysate was incubated with 1 μM Bio-THZ531 in the presence of 1 mM DTT and incubated on a rocker at 4° C. overnight. 100 μL of this sample was added to pre-washed streptavidin coated plates and incubated at room temperature on a rocker for 2 hours. The plates were washed and incubated with CDK12 antibody for overnight at 4° C. Next day the plate was washed and incubated for 2 hours with HRP labelled anti rabbit secondary antibody. Bio-THZ531 bound CDK12 was determined using TMB substrate. […] Percentage CDK12 occupancy with the test compound was calculated over untreated control. Occupancy 50 was calculated by fitting the dose response data to sigmoidal curve fitting equation using GraphPad Prism software V5.
Target sequence in this assay (Q9NYV4 whole entry, looked up): as the sequence (Q9NYV4 whole entry, species assumed) above
Target sequence in this assay (O75909 whole entry partner, looked up): as the sequence (O75909 whole entry partner, looked up, species assumed) above

[6] = ATP 1 mM/100 μM, 60 min pre-incubation

Sequence of CDK13 (Q14004 whole entry, looked up, species assumed): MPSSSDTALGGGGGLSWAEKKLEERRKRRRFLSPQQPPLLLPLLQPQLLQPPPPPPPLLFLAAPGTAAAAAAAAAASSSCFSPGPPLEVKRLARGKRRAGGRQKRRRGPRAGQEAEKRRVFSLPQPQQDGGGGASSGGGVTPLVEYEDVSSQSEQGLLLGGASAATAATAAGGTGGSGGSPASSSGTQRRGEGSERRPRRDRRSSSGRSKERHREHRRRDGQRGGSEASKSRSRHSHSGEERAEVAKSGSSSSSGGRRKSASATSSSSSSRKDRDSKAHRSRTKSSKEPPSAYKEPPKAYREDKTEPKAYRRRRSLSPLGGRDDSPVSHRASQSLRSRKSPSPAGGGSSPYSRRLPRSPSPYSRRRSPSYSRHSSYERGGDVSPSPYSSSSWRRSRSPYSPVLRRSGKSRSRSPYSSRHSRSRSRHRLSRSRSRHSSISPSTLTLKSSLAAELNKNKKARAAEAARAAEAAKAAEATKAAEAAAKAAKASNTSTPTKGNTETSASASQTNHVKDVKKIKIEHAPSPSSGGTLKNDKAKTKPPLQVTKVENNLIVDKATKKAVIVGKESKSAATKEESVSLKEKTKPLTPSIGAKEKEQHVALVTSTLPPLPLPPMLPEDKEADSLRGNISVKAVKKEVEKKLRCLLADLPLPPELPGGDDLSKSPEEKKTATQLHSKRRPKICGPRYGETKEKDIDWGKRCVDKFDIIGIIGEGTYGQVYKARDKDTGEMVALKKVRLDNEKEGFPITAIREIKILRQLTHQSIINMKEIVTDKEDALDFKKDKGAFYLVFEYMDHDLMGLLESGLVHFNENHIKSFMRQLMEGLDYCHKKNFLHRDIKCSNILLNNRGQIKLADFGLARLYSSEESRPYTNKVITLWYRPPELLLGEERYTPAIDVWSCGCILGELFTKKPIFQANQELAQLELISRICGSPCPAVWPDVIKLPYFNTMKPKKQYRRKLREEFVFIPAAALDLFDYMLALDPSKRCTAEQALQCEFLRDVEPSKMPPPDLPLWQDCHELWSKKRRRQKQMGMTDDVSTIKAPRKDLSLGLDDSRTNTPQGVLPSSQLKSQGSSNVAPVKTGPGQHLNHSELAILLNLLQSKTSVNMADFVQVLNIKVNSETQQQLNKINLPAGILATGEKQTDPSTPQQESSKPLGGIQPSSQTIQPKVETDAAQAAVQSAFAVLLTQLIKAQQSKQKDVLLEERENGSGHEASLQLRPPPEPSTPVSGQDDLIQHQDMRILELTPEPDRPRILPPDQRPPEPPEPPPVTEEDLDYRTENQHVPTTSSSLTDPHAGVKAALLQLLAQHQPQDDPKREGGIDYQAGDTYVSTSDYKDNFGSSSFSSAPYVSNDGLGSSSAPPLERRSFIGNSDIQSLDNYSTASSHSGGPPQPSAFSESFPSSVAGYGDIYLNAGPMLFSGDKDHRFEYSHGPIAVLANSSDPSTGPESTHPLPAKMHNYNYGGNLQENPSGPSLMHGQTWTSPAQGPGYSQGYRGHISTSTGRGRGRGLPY
Sequence of CDK13 (O75909 whole entry partner, looked up, species assumed): as the sequence (O75909 whole entry partner, looked up, species assumed) above
Sequence of CDK7 (P50613 whole entry, looked up, species assumed): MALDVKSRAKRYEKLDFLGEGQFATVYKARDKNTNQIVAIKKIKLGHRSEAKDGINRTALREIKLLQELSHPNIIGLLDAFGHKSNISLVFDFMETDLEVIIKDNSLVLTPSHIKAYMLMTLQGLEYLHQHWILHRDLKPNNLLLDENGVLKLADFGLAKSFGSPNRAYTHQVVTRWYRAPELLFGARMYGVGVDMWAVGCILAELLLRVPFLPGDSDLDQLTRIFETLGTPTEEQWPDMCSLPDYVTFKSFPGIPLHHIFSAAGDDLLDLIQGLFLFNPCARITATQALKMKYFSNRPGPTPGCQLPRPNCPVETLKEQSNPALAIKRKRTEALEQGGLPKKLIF
Sequence of CDK7 (P51946 whole entry partner, looked up, species assumed): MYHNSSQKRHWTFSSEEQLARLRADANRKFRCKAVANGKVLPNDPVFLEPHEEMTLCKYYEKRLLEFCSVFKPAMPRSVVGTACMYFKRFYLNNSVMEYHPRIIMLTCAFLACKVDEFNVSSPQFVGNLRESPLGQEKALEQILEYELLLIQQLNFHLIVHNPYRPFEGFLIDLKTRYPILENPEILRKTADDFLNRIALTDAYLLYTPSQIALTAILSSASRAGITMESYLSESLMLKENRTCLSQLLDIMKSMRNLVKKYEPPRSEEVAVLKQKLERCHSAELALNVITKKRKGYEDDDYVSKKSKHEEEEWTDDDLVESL
Sequence of CDK7 (P51948 whole entry partner, looked up, species assumed): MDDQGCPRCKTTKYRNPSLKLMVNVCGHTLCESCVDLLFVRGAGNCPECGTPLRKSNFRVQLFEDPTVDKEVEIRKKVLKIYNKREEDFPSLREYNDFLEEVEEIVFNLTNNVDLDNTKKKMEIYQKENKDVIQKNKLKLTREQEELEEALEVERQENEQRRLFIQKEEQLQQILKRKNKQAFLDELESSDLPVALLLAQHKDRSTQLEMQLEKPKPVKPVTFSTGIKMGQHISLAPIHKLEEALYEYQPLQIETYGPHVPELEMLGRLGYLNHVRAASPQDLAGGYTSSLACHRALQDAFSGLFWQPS

| SMILES | IC50 [1] [nM] | Ratio CDK7/CDK13 [1] | IC50 [2, 6] [nM] | Kd [3] [nM] | Ratio CDK7/CDK12 [4] | IC50 [4] [nM] | CDK12 Target Occupancy (Tocc50) μM in Jurkat cells ([5]; Jurkat cells, 6 hours) [µM] | CDK12 Target Occupancy (Tocc50) μM in Jurkat cells [5] [µM] | IC50 [2] [nM] |
| --- | --- | --- | --- | --- | --- | --- | --- | --- | --- |
| C=CC(=O)N1CCC=C(c2ccc(C(C)C(=O)Nc3cc(C4CC4)[nH]n3)cc2)CC1 (stereo not drawn) [Compound 9, 2-(4-(1-acryloyl-2,3,6,7-tetrahydro-1H-azepin-4-yl)phenyl)-N-(5-cyclopropyl-1H-pyrazol-3-yl)propanamide] | 21 | 313.57 | 6580 | 25 to 100 | 27.43 | 240 | – | – | – |
| C=CC(=O)N1CC=C(c2ccc(C(C)C(=O)Nc3cc(C4CC4)[nH]n3)cn2)C1 (stereo not drawn) [Compound 46, 2-(6-(1-acryloyl-2,5-dihydro-1H-pyrrol-3-yl)pyridin-3-yl)-N-(5-cyclopropyl-1H-pyrazol-3-yl)propanamide] | 6.9 | – | – | – | – | 32 | 0.003 | – | – |
| C=CC(=O)N1CCC(c2ccc([C@H](C)C(=O)Nc3cc(C4CC4)[nH]n3)cc2)CC1 [Compound 12, (S)-2-(4-(1-acryloylpiperidin-4-yl)phenyl)-N-(5-cyclopropyl-1H-pyrazol-3-yl)propanamide] | 7 | 404.28 | 2830 | – | 18.74 | 151 | 0.080 | – | – |
| CC#CC(=O)N1CCC=C(c2ccc(C(C)C(=O)Nc3cc(C4CC4)[nH]n3)cn2)C1 (stereo not drawn) [Compound 52, 2-(1′-(but-2-ynoyl)-1′,2′,5′,6′-tetrahydro-[2,3′-bipyridin]-5-yl)-N-(5-cyclopropyl-1H-pyrazol-3-yl)propanamide] | 19 | 115.26 | 2190 | – | 9.64 | 227 | 0.179 | – | – |
| C#CC(=O)N1CCC=C(c2ccc(CC(=O)Nc3cc(C4CC4)[nH]n3)cn2)C1 [Compound 58, N-(5-cyclopropyl-1H-pyrazol-3-yl)-2-(1′-propioloyl-1′,2′,5′,6′-tetrahydro-[2,3′-bipyridin]-5-yl)acetamide] | 84 | – | – | – | – | 49 | 0.0097 | – | – |
| C#CC(=O)N1CC=C(c2ccc(CC(=O)Nc3cc(C4CC4)[nH]n3)cn2)C1 [Compound 60, N-(5-cyclopropyl-1H-pyrazol-3-yl)-2-(6-(1-propioloyl-2,5-dihydro-1H-pyrrol-3-yl)pyridin-3-yl)acetamide] | – | – | – | – | – | 12 | 0.0088 | – | – |
| C=CC(=O)N1CCN(c2ccc(C(C)C(=O)Nc3cc(C4CC4)[nH]n3)cc2)CC1 (single isomer, unassigned) [Compound 18, 2-(4-(4-acryloylpiperazin-1-yl)phenyl)-N-(5-cyclopropyl-1H-pyrazol-3-yl)propanamide] | 11.7 | – | 2320 | 25 to 100 | – | 238 | – | – | – |
| C=CC(=O)NC1CCC(c2ccc(C(C)C(=O)Nc3cc(C4CC4)n[nH]3)cc2)CC1 (single isomer, unassigned) [Compound 10, N-(4-(4-(1-((5-cyclopropyl-1H-pyrazol-3-yl)amino)-1-oxopropan-2-yl)phenyl)cyclohexyl)acrylamide] | 18 | – | 5490 | < 25 | – | 740 | – | – | – |
| C=CC(=O)N1CC=C(c2ccc(C(C)C(=O)Nc3cc(C4CC4)[nH]n3)cn2)CC1 (single isomer, unassigned) [Compound 5, 2-(1′-acryloyl-1′,2′,3′,6′-tetrahydro-[2,4′-bipyridin]-5-yl)-N-(5-cyclopropyl-1H-pyrazol-3-yl)propanamide] | 77 | 129.87 | > 10000 | 25 to 100 | 7.64 | 1310 | – | – | – |
| C=CC(=O)N1CCN(c2ccc(C(C)C(=O)Nc3cc(C4CC4)[nH]n3)cn2)CC1 (stereo not drawn) [Compound 20, 2-(6-(4-acryloylpiperazin-1-yl)pyridin-3-yl)-N-(5-cyclopropyl-1H-pyrazol-3-yl)propanamide] | 94 | 22.23 | 2090 | < 25 | 21.11 | 99 | – | – | – |
| C=CC(=O)N1CC=C(c2ccc(C(C(=O)Nc3cc(C4CC4)[nH]n3)C(C)C)cn2)CC1 (stereo not drawn) [Compound 7, 2-(1′-acryloyl-1′,2′,3′,6′-tetrahydro-[2,4′-bipyridin]-5-yl)-N-(5-cyclopropyl-1H-pyrazol-3-yl)-3-methylbutanamide] | 398 | 1.86 | 744 | > 100 | – | – | – | – | – |
| C=CC(=O)N1CC=C(c2ccc(C(C)C(=O)Nc3cc(C4CC4)[nH]n3)cn2)CC1 (stereo not drawn) [Compound 4, 2-(1′-acryloyl-1′,2′,3′,6′-tetrahydro-[2,4′-bipyridin]-5-yl)-N-(5-cyclopropyl-1H-pyrazol-3-yl)propanamide] | 3 | 570.0 | 1710 | < 25 | 23.75 | 72 | – | – | – |
| C=CC(=O)N1CC=C(c2ccc(C(C)C(=O)Nc3cc(C4CC4)[nH]n3)cc2F)CC1 (stereo not drawn) [Compound 44, 2-(4-(1-acryloyl-1,2,3,6-tetrahydropyridin-4-yl)-3-fluorophenyl)-N-(5-cyclopropyl-1H-pyrazol-3-yl)propanamide] | 5.8 | 151.72 | 880 | – | 97.77 | 9 | 0.009 | – | – |
| C#CC(=O)N1CC=C(c2ccc(C(C)C(=O)Nc3cc(C4CC4)[nH]n3)cn2)CC1 (stereo not drawn) [Compound 50, N-(5-cyclopropyl-1H-pyrazol-3-yl)-2-(1′-propioloyl-1′,2′,3′,6′-tetrahydro-[2,4′-bipyridin]-5-yl)propanamide] | 7 | 1.71 | – | – | – | – | – | 0.038 | 12 |
| C=CC(=O)NC1CCC(c2ccc(C(C)C(=O)Nc3cc(C4CC4)n[nH]3)cc2)CC1 (single isomer, unassigned) [Compound 11, N-(4-(4-(1-((5-cyclopropyl-1H-pyrazol-3-yl)amino)-1-oxopropan-2-yl)phenyl)cyclohexyl)acrylamide] | 45 | – | 3650 | 25 to 100 | – | 1020 | – | – | – |
| N#CN1CCC=C(c2ccc(CC(=O)Nc3cc(C4CC4)[nH]n3)cn2)C1 [Compound 61, 2-(1′-cyano-1′,2′,5′,6′-tetrahydro-[2,3′-bipyridin]-5-yl)-N-(5-cyclopropyl-1H-pyrazol-3-yl)acetamide] | – | – | – | – | – | 6 | 0.007 | – | – |
| C=CC(=O)N1CCC=C(c2ccc(C(C)C(=O)Nc3cc(C4CC4)[nH]n3)cn2)C1 (stereo not drawn) [Compound 35, 2-(1′-acryloyl-1′,2′,5′,6′-tetrahydro-[2,3′-bipyridin]-5-yl)-N-(5-cyclopropyl-1H-pyrazol-3-yl)propanamide] | 6 | 25.5 | 153 | < 25 | 5.1 | 30 | – | – | – |
